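Each compound was tested at five concentrations against cells in 96-well plates for 48 hours. GI50: concentration for 50% inhibition of growth. Definition used: TGI = concentration required for complete inhibition of growth.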

For the first assay, the system named is NCI-H522 lung. Briefly: NCI anticancer screen, dose series, 48 h.
In turn, `C=C1C2Oc3ccccc3C1N(c1ccccc1)O2` (stereo not drawn) registered a TGI of 80.8 µM.
Same read-out and setting: the figure for `C=C1C(=O)C23C(O)C1CC[C@H]2C12CCCC(C)(COC(C)=O)[C@H]1[C@H](O)[C@]3(O)OC2` (stereo partly drawn) is 0.902 µM.
Consider `O=S1CSSC1`, for which the TGI is 25.9 µM.
Still for that read-out and setting: the figure for `C=CCNC(=O)N(CCC)CCCC(NC(C)=O)C(=O)NCc1ccccc1` (stereo not drawn) is above 100 µM; for `Cc1ccccc1/C=C/C(=O)c1ccccc1` it is 46.8 µM.
As for `COC(=O)C1C(=O)N(CCc2c[nH]c3ccccc23)C[C@@H]2CCC(=O)C[C@H]12` (stereo partly drawn), the TGI was above 100 µM.
On the same count and under the same terms, for `C[C@]12C/C(=C/O)C(=O)C(O)=C1CC[C@@H]1C2CC[C@@]2(C)C1CC[C@@H]2O` (stereo partly drawn) the value was 32 µM; for `Cc1c(C)c(CC(=O)N2CC2)c(C)c(C)c1CC(=O)N1CC1`, 27.1 µM.
On the same count and under the same terms, for `CCCCCCCCCCCCCCCCCCOCC(COCCOCC[N+]1(CCCCCC(=O)[O-])CCCC1)Oc1ncccn1` (stereo not drawn) the value was 7.68 µM.
On the same count and under the same terms, for `CC(C)(C)NCC(COc1ccc([N+](=O)[O-])cc1)OP(c1ccccc1)c1ccccc1` (stereo not drawn) the value was 69.5 µM; for `COc1cc(C2c3cc4c(cc3[C@@H](Nc3ccc5c(c3)OCCO5)C3COC(=O)[C@H]23)OCO4)cc(OC)c1O` (stereo partly drawn), 5.43 µM.
With `Cn1c(=O)nc2n(-c3ccc(Cl)c(C(F)(F)F)c3)c3ccccc3nc-2c1=O`, the TGI is 73 µM.

For a further assay, the system named is LOX IMVI melanoma. The assay is described as follows: NCI anticancer screen, dose series, 48 h.
The molecule `Cc1c2ccncc2c(C)c2c1[nH]c1ccc(O)c(OCC(F)(F)F)c12` registered a TGI of 3.27 µM.
Molecule `CC(C)(C)OC(=O)NC1CCCC1=O` (stereo not drawn) registered a TGI above 100 µM.
Consider `O=C1[C@H]2ON(c3ccccc3)C(c3ccco3)[C@H]2C(=O)N1c1ccc(Cc2ccc(N3C(=O)[C@@H]4ON(c5ccccc5)C(c5ccco5)[C@@H]4C3=O)cc2)cc1` (stereo partly drawn), for which the TGI was above 100 µM.
Same read-out and setting: the figure for `CCCCCCC(C)CCCCCCCCCCC(=O)O` (stereo not drawn) is above 100 µM; for `COc1ccc2[nH]c(-c3ccc(O)cc3)cc(=O)c2c1` it is above 90 µM.
Same read-out and setting: for `CC(C)[O-].CC(C)[O-].O=c1cccccc1[O-].O=c1cccccc1[O-].[Ti+4]` the value was above 100 µM; for `COc1cc(CNc2nc3ccc(C(F)(F)F)cc3nc2-c2ccccc2)cc(OC)c1OC`, above 100 µM; for `COc1ccccc1NC(=O)/C(=C/c1ccccc1)C(C)=O`, above 100 µM.
Same read-out and setting: the figure for `O=C(CC1(O)C(=O)Nc2c(Cl)ccc(Cl)c21)c1ccc(Cl)cc1Cl` (stereo not drawn) is 28.3 µM.
In turn, `CC1=NN(C(=O)c2ccncc2)C(=O)C1N=Nc1ccc(F)cc1` (stereo not drawn) registered a TGI above 100 µM.
The same measure, in the same setting: the figure for `CCOC(OC1=C(C#N)CCCC1)C(CC)[Se]c1ccccc1` (stereo not drawn) is 21.9 µM.
The same measure, in the same setting: for `C=C1C2Oc3ccccc3C1N(c1ccccc1)O2` (stereo not drawn) the value was 36.2 µM; for `C=C1C(=O)C23C(O)C1CC[C@H]2C12CCCC(C)(COC(C)=O)[C@H]1[C@H](O)[C@]3(O)OC2` (stereo partly drawn), 3.17 µM; for `O=S1CSSC1`, 20 µM.
Same read-out and setting: for `C=CCNC(=O)N(CCC)CCCC(NC(C)=O)C(=O)NCc1ccccc1` (stereo not drawn) the value was above 100 µM; for `CCOC(=O)C1(Cc2ccc3ccccc3c2)CCCCC(=O)N1` (stereo not drawn), above 100 µM.
On to `COC(=O)C1C(=O)N(CCc2c[nH]c3ccccc23)C[C@@H]2CCC(=O)C[C@H]12` (stereo partly drawn), for which the TGI was above 100 µM.
Still for that read-out and setting: for `C[C@]12C/C(=C/O)C(=O)C(O)=C1CC[C@@H]1C2CC[C@@]2(C)C1CC[C@@H]2O` (stereo partly drawn) the value was 30.9 µM; for `Cc1c(C)c(CC(=O)N2CC2)c(C)c(C)c1CC(=O)N1CC1`, above 49 µM; for `CCCCCCCCCCCCCCCCCCOCC(COCCOCC[N+]1(CCCCCC(=O)[O-])CCCC1)Oc1ncccn1` (stereo not drawn), 13 µM.
For `CC(C)(C)NCC(COc1ccc([N+](=O)[O-])cc1)OP(c1ccccc1)c1ccccc1` (stereo not drawn), the TGI turned out to be 26.7 µM.
On the same count and under the same terms, the figure for `COc1cc(C2c3cc4c(cc3[C@@H](Nc3ccc5c(c3)OCCO5)C3COC(=O)[C@H]23)OCO4)cc(OC)c1O` (stereo partly drawn) is 22.4 µM; for `Cn1c(=O)nc2n(-c3ccc(Cl)c(C(F)(F)F)c3)c3ccccc3nc-2c1=O` it is above 100 µM.

Another assay has as its system DLD-1 colon. Briefly: NCI anticancer screen, dose series, 48 h.
Regarding `Cc1c2ccncc2c(C)c2c1[nH]c1ccc(O)c(OCC(F)(F)F)c12`, the TGI came out at 18.2 µM.
The same measure, in the same setting: for `CC(C)(C)OC(=O)NC1CCCC1=O` (stereo not drawn) the value was above 100 µM; for `O=C1[C@H]2ON(c3ccccc3)C(c3ccco3)[C@H]2C(=O)N1c1ccc(Cc2ccc(N3C(=O)[C@@H]4ON(c5ccccc5)C(c5ccco5)[C@@H]4C3=O)cc2)cc1` (stereo partly drawn), above 100 µM; for `Cc1cccc(C)c1N1C(=O)C(=O)C(c2nc3ccccc3s2)/C(=N/NC(=O)NN)C1=O` (stereo not drawn), above 100 µM.
The same measure, in the same setting: for `CCCCCCC(C)CCCCCCCCCCC(=O)O` (stereo not drawn) the value was above 100 µM.
Same read-out and setting: the figure for `COc1ccc2[nH]c(-c3ccc(O)cc3)cc(=O)c2c1` is above 100 µM.
Take `CC(C)[O-].CC(C)[O-].O=c1cccccc1[O-].O=c1cccccc1[O-].[Ti+4]`: the GI50 is 42 µM and the TGI is above 100 µM.
`COc1cc(CNc2nc3ccc(C(F)(F)F)cc3nc2-c2ccccc2)cc(OC)c1OC` returned a TGI above 100 µM.
On the same count and under the same terms, the figure for `COc1ccccc1NC(=O)/C(=C/c1ccccc1)C(C)=O` is above 100 µM; for `O=C(CC1(O)C(=O)Nc2c(Cl)ccc(Cl)c21)c1ccc(Cl)cc1Cl` (stereo not drawn) it is above 100 µM.
The same measure, in the same setting: the figure for `CC1=NN(C(=O)c2ccncc2)C(=O)C1N=Nc1ccc(F)cc1` (stereo not drawn) is above 100 µM; for `CCOC(OC1=C(C#N)CCCC1)C(CC)[Se]c1ccccc1` (stereo not drawn) it is 34.4 µM; for `C=C1C2Oc3ccccc3C1N(c1ccccc1)O2` (stereo not drawn) it is above 100 µM.
On the same count and under the same terms, the figure for `C=C1C(=O)C23C(O)C1CC[C@H]2C12CCCC(C)(COC(C)=O)[C@H]1[C@H](O)[C@]3(O)OC2` (stereo partly drawn) is 1.7 µM.
`O=S1CSSC1` registered a TGI of 43.1 µM.
On the same count and under the same terms, the figure for `CCOC(=O)C1(Cc2ccc3ccccc3c2)CCCCC(=O)N1` (stereo not drawn) is above 100 µM; for `Cc1ccccc1/C=C/C(=O)c1ccccc1` it is 54.9 µM.

(Values after PubChem BioAssay (NCI).)
